These compounds were tested against T1, Human TRPC6 (Homo sapiens, UniProt Q9Y210) (assay: Evaluation of TRPC6 channel inhibitory activity (1), FLIPR Calcium 5 Assay Kit, OAG stimulation (Compound Nos. 1-1293)). Settings: not given.
T1 construct: expressed in transfected cells
T1 sequence (Q9Y210 1-931): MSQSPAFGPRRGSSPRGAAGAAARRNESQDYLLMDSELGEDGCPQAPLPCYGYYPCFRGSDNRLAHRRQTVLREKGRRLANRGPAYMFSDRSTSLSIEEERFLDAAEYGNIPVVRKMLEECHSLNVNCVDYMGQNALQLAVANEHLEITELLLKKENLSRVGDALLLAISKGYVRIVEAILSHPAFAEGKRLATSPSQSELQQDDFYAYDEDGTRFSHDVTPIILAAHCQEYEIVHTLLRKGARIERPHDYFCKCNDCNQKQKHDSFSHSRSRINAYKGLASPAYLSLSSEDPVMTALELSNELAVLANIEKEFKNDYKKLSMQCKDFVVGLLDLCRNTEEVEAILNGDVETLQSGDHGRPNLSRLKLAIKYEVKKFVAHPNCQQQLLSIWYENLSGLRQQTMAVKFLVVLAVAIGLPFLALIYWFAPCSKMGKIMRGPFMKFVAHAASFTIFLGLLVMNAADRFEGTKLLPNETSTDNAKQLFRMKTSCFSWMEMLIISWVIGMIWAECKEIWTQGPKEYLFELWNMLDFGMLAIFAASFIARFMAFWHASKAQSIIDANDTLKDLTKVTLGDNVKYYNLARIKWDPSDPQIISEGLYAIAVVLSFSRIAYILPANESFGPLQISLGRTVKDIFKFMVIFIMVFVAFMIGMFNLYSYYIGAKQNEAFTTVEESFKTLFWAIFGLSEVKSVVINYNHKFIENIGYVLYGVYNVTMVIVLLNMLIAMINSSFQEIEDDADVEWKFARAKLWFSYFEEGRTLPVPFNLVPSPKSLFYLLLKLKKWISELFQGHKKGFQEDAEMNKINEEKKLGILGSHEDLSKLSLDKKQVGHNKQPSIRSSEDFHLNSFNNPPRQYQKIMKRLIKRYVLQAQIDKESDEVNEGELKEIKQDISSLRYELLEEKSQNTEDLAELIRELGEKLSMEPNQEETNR
Type: cell-based
How it was run: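 Readout is pIC50 from four-parameter logistic fitting of inhibition of the OAG-evoked (30 μM final) fluorescence calcium signal. Human TRPC6 stable cells are dye-loaded with probenecid, and compound is applied 20 min ahead of agonist.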

For `N#Cc1ccc(-c2ncc(CN)cn2)c(Oc2cc(N3C4CCC3CC4)ncc2C#N)c1` [compound 749, 4-[2-[5-(aminomethyl)pyrimidin-2-yl]-5-cyanophenoxy]-6-(7-azabicyclo[2.2.1]heptan-7-yl)pyridine-3-carbonitrile], the IC50 was 10 to 1000 nM.

Same assay, conditions: Human TRPC6 stably-expressing cells, OAG 30 μM, FLIPR Calcium 5 Assay Kit; read-out: Inhibitory activity (pIC50 class) (converted)

`COc1ccccc1-c1cc(Oc2cc(C#N)ccc2-c2ccc(CCN)cc2)cnn1` [Compound 118, 4-[4-(2-aminoethyl)phenyl]-3-[6-(2-methoxypheny)pyridazin-4-yl]oxybenzonitrile] and `CC(C)(C)COc1cc(Oc2cc(C#N)ccc2-c2ccc(CCN)cc2)cnn1` [Compound 108, 4-[4-(2-aminoethyl)phenyl]-3-[6-(2,2-dimethylpropoxy)pyridazin-4-yl]oxybenzonitrile] fall in the same range of IC50: 10 to 1000 nM for the first, 10 to 1000 nM for the second.

Compared with `Cc1nc(Nc2cc(C#N)ccc2-c2ccc(CCN)cc2)cc(N2CCOCC2)n1` [Compound 2, 4-[4-(2-aminoethyl)phenyl]-3-[(2-methyl-6-morpholin-4-ylpyrimidin-4-yl)amino]benzonitrile], `Cc1nc(Oc2cc(C#N)ccc2-c2ccc(CCN)cc2)cc(-c2cccn2C)n1` [Compound 28, 4-[4-(2-aminoethyl)phenyl]-3-[2-methyl-6-(1-methylpyrrol-2-yl)pyrimidin-4-yl]oxybenzonitrile] is higher in IC50: under 10 nM for the first, 10 to 1000 nM for the second.

`COCc1cncn1Cc1cc(C#N)ccc1-c1ccc(CCN)cc1` [compound 1116, 4-[4-(2-aminoethyl)phenyl]-3-[[5-(methoxymethyl)imidazol-1-yl]methyl]benzonitrile] and `COCc1nn(C)c(Oc2cc(C#N)ccc2-c2ccc(CCN)cc2)c1C` [Compound 242, 4-[4-(2-aminoethyl)phenyl]-3-[5-(methoxymethyl)-2,4-dimethylpyrazol-3-yl]oxybenzonitrile] cannot be ordered by IC50: over 1000 nM for the first, over 1000 nM for the second.

`Cc1nc(Oc2cc(C#N)ccc2-c2ccc([C@H](O)CN)cn2)cc(-c2ccccc2)n1` [compound 525, 4-[5-[(1S)-2-amino-1-hydroxyethyl]pyridin-2-yl]-3-(2-methyl-6-phenylpyrimidin-4-yl)oxybenzonitrile] and `N#Cc1ccc(-c2ccc(C(O)CN)cn2)c(Oc2cc(C3CC3)nn2CC(F)(F)F)c1` (stereo not drawn) [compound 370, 4-[5-(2-amino-1-hydroxyethyl)pyridin-2-yl]-3-[5-cyclopropyl-2-(2,2,2-trifluoroethyl)pyrazol-3-yl]oxybenzonitrile] cannot be ordered by IC50: under 10 nM for the first, under 10 nM for the second.

Compared with `Cn1nc(N2CCCC2)cc1Oc1cc(C#N)ccc1-c1ccc([C@H](O)CN)cn1` [compound 545, 4-[5-[(1S)-2-amino-1-hydroxyethyl]pyridin-2-yl]-3-(2-methyl-5-pyrrolidin-1-ylpyrazol-3-yl)oxybenzonitrile], `CN(C)c1cc(Oc2cc(C#N)ccc2-c2ccc([C@H](F)CN)cn2)n(C)n1` [compound 909, 4-[5-[(1S)-2-amino-1-fluoroethyl]pyridin-2-yl]-3-[5-(dimethylamino)-2-methylpyrazol-3-yl]oxybenzonitrile] is lower in IC50: 10 to 1000 nM for the first, under 10 nM for the second.

Compared with `Cn1nc(-c2ncccn2)cc1Oc1cc(C#N)ccc1-c1ccc(CCN)cn1` [compound 512, 4-[5-(2-aminoethyl)pyridin-2-yl]-3-(2-methyl-5-pyrimidin-2-ylpyrazol-3-yl)oxybenzonitrile], `Cn1nc(C2CC2)cc1Oc1cc(C#N)ccc1-c1cc(N)ccn1` [compound 450, 4-(4-aminopyridin-2-yl)-3-(5-cyclopropyl-2-methylpyrazol-3-yl)oxybenzonitrile] is higher in IC50: 10 to 1000 nM for the first, over 1000 nM for the second.

Compared with `Cn1nc(C2CC2)cc1Oc1cc(C#N)ccc1-c1cc(C(=O)N2CCC[C@@H](N)C2)ccn1` [compound 554, 4-[4-[(3R)-3-aminopiperidine-1-carbonyl]pyridin-2-yl]-3-(5-cyclopropyl-2-methylpyrazol-3-yl)oxybenzonitrile], `Cc1nc(OCC2CC2(F)F)cc(Oc2cc(C#N)ccc2-n2cc([C@@H](O)CN)cn2)n1` (stereo partly drawn) [Compound 271, 4-[4-[(1R)-2-amino-1-hydroxyethyl]pyrazol-1-yl]-3-[6-[(2,2-difluorocyclopropyl)methoxy]-2-methylpyrimidin-4-yl]oxybenzonitrile] is lower in IC50: over 1000 nM for the first, 10 to 1000 nM for the second.
